US11291201B2, “Solutions for increasing the stability and shelf life of an organ and tissue preservation solution” (Marizyme, Inc., priority 2013, dated 2022)
Like-named read-outs stand apart in the source and are kept apart here.

Experiments:
[1] = 40° C., Solution B
Source text: (§1) The values of the exponents in the equation derived from the exponential fit are the first order rate constant k1 (in units of days^−1).

[2] = Experimental: The real time stability studies at 5° C. have progressed for about one year thus far.
as §1

time until product specification for L-glutathione approached its limit of expiration [1]: approximately 73 days
time until product specification for L-glutathione approached its limit of expiration ([2]; 5° C., from first order fit of 12-15 month real time data): about 100 months
energy of activation for decomposition ([2]; corresponds to Q10 value of 2.94): 19.0 kcal/mol
SMILES: N[C@@H](CCC(=O)N[C@@H](CS)C(=O)NCC(=O)O)C(=O)O [L-glutathione]
